# Results from ChEMBL document CHEMBL3351582, “A simple, general approach of allosteric coagulation enzyme inhibition through monosulfated hydrophobic scaffolds” (Bioorg Med Chem Lett, 2014).
# pIC50: −log10 of the molar value.
# Assays:
# Prothrombin = Prothrombin (Homo sapiens, UniProt P00734); test: Inhibition of human thrombin using spectrozyme TH as substrate by spectrophotometric assay
# Coagulation factor X = Coagulation factor X (Homo sapiens, UniProt P00742); test: Inhibition of human factor 10a by spectrophotometric assay; conditions: for pIC50: read-out: IC50
# Coagulation factor XI = Coagulation factor XI (Homo sapiens, UniProt P03951); test: Inhibition of human factor 11a by spectrophotometric assay; conditions: for pIC50: read-out: IC50
# [1] = Anticoagulant activity in human […] assessed as concentration required to double prothrombin time; assay type: functional
# [2] = Anticoagulant activity in human […] assessed as concentration required to double activated partial thromboplastin time; assay type: functional
# Sequence of Coagulation factor XI (P03951 19-387 limits assumed): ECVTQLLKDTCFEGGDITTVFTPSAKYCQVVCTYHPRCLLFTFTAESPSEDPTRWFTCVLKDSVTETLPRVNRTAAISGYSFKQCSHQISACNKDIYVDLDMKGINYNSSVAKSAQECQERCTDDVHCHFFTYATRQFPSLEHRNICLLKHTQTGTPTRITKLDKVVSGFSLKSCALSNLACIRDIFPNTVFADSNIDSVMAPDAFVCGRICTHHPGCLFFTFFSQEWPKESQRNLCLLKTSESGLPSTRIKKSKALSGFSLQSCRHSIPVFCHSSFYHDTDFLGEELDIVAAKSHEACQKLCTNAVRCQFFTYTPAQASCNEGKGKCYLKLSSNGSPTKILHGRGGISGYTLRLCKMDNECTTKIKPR
# Sequence of Coagulation factor XI (P03951 388-625 limits assumed): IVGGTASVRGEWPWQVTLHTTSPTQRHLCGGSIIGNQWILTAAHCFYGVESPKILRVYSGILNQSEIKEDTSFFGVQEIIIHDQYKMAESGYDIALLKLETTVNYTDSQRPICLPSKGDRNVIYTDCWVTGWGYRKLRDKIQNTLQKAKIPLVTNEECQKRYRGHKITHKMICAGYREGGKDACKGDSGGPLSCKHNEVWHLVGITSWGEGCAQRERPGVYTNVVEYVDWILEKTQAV
# Sequence of Coagulation factor X (P00742 41-179 limits assumed): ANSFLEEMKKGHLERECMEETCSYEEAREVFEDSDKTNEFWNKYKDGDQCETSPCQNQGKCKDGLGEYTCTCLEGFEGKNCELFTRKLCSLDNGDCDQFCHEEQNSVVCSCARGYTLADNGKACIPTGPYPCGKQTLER
# Sequence of Coagulation factor X (P00742 235-488 limits assumed): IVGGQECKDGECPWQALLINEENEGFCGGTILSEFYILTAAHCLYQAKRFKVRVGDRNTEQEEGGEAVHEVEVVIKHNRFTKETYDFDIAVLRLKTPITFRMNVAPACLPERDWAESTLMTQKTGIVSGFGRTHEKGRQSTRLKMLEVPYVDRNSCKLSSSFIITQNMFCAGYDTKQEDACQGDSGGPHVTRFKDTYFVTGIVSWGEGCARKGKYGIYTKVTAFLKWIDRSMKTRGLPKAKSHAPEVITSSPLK
SMILES,pIC50 (Prothrombin),pIC50 (Coagulation factor X),pIC50 (Coagulation factor XI),IC50 (Coagulation factor X),IC50 (Coagulation factor XI),2PT [1],2aPTT [2]
COc1cc2occ(C(=O)OC(C)(C)C)c2cc1OCc1nc2ccc(OS(=O)(=O)O)cc2s1,3.84,3.45,3.91,,,,
Cc1nc2ccc(OCc3nc4ccc(OS(=O)(=O)[O-])cc4s3)cc2s1.[Na+],3.49,,,Not Active,Not Active,,
CCOC(=O)c1c(COc2cc3c(C(=O)OCC)c(COc4cc5c(C(=O)OCC)c(C)oc5cc4OC)oc3cc2OC)[nH]c2ccc(OS(=O)(=O)[O-])cc12.[Na+],3.52,3.46,4.06,,,845 µM,755 µM

# Further lines, with some results ahead:
pIC50 (Prothrombin),pIC50 (Coagulation factor X),pIC50 (Coagulation factor XI),IC50 (Coagulation factor X),IC50 (Coagulation factor XI),SMILES,2PT [1],2aPTT [2]
3.49,3.71,3.93,,,CCOC(=O)c1c(COc2cc3c(C(=O)OCC)c(Cc4ccccc4)oc3cc2OC)[nH]c2ccc(OS(=O)(=O)[O-])cc12.[Na+],2361 µM,1021 µM
3.37,3.64,3.66,,,CCOC(=O)c1c(C)[nH]c2ccc(OCc3c(C(=O)OCC)c4cc(OS(=O)(=O)[O-])ccc4n3C(=O)OC(C)(C)C)cc12.[Na+],1475 µM,424 µM
